From US20190211024A1 (priority 2016, published 2019)

With CC(C)SN1C=Cn2c(nc(=O)n2[N+](=O)[O-])N1.O.O (hydrate or solvate) the melting point was 185 °C.
